Data as given in patent US20200158718A1, “A METHOD FOR PREDICTING TIME-TO-VIRAL CLEARANCE IN PATIENTS WITH CHRONIC HEPATITIS C VIRUS (HCV) INFECTION UNDER DIRECT ACTING ANTIVIRAL (DAA) THERAPY” (priority 2017, published 2020).
Where “and” joins values, the source holds several entries; their conditions need not be identical. Equal values may be shown once.

Columns and labels:
Type in all cases: in vivo, human
[1] = system: hepatitis C virus (HCV); assay: Observational trial (training set): HCV-RNA / virological response of chronic HCV patients under DAA therapy; conditions: for HCV-RNA EOT / HCV-RNA wk 4 / HCV-RNA SVR12: one line per patient (Table 3); for HCV-RNA EOT: end of treatment; for HCV-RNA wk 4: week 4 of therapy; for HCV-RNA SVR12: week 12 after end of treatment; for Response to DAA Therapy: one line per patient (Table 1, patients 1-23), SVR12 = undetectable HCV-RNA at week 12 after end of treatment, relapse = undetectable at EOT but detectable during follow-up, patients 5, 9 treated 24 weeks, patients 18, 23 treated 8 weeks
Description: The expression “time-to-viral clearance” indicates the period until no HCV RNA detection with currently available detection methods, e.g. as measured by PCR, particularly by quantitative real-time PCR in peripheral blood samples, e.g. in samples of at least 5 ml EDTA blood or whole blood is possible. Using a standard PCR-based test, fewer than 12 copies per milliliter blood is considered to be clinically clear of HCV (Table 3).
(§1) Peripheral blood samples were provided by patients with chronic HCV infection, who were participating in an observational trial (clinicaltrials.gov: NCT02904603) authorized by the local ethics committee. For a training trial, 23 patients (genotype 1a (n=10), 1b (n=9) and 3 (n=4)) were treated with daclatasvir plus sofosbuvir (DCV/SOF; n=15), ledipasvir plus sofosbuvir (LDV/SOF; n=4) or with ritonavir-boosted paritaprevir, ombitasvir, and dasabuvir (n=4).
(§2) A sustained virological response to DAA therapy is generally achieved in 85-99% of chronic HCV patients, depending upon viral genotype, patient-related factors and the choice of treatment regime. In the present study of 23 patients with chronic HCV infection, 22 had achieved a sustained virological response at 12 weeks post-treatment (SVR12). Clearance of virus was associated with improved liver function and reduction in systemic markers of liver inflammation. Although most patients achieved sustained virological responses by 12 weeks, there was considerable variation in time to HCV RNA negativity and normalization of biochemical parameters. Baseline mean HCV RNA titer was 6.12±0.12 log 10 IU/ml, falling to 1.2±0.14 log 10 IU/ml by 4 weeks, at which time 12/23 patients were HCV RNA <12 IU/ml. HCV establishes persistent infections during which virus-specific CD4+ and CD8+ T cells become impaired through progressive functional exhaustion or clonal deletion, and intrahepatic NK cell responses are subdued. […] In particular, this study aimed to identify a minimal set of immunological markers that accurately classified patients with chronic HCV infections as “fast responders” (i.e. HCV RNA <12 IU/ml by 4 weeks) or “slow responders” (i.e. HCV RNA >12 IU/ml at 4 weeks, irrespective of later outcome). These biomarkers were to be independent of viral genotype, baseline fibrosis score, previous HCV treatment, and other patient-related factors. Therefore, the influence of the ALT levels, of the HCV genotype, of a previous treatment for chronic HCV, and the pre-treatment fibrosis score were also analyzed.

[2] = system: ALT, alanine aminotransferase; assay: Observational trial (training set): ALT level of chronic HCV patients under DAA therapy; conditions: one line per patient (Table 3); for ALT level EOT: end of treatment; for ALT level wk 4: week 4 of therapy; for ALT level SVR12: week 12 after end of treatment
Description: as §1, §2

[3] = system: hepatitis C virus (HCV); assay: Prospective set: HCV-RNA at week 4 of DAA therapy in a further 10 chronic HCV patients; conditions: one line per patient (Table 5, prospective set)
Source text: To verify that the model accurately predicted fast and slow responses, data were collected from a further 10 chronic HCV patients prior to DAA treatment (Table 5). In this “prospective set”, 8 patients were slow responders and 2 were fast responders: all slow responders were correctly classified as such (Table 2D). The model also correctly identified 1 of 2 fast responders. […] For the purpose of prospectively and safely shortening DAA therapy, a test with high specificity is more important than one with high sensitivity.
To verify that the herein disclosed model accurately predicts fast and slow responses, data were collected from a further 10 chronic HCV patients prior to DAA treatment (cf. the Table 5 below).

| Substance | HCV-RNA EOT [1] | HCV-RNA wk 4 [1] | HCV-RNA SVR12 [1] | ALT level EOT [2] | ALT level wk 4 [2] | ALT level SVR12 [2] | Response to DAA Therapy wk 4 [3] | Response to DAA Therapy [1] |
| --- | --- | --- | --- | --- | --- | --- | --- | --- |
| daclatasvir plus sofosbuvir [SOF + DCV] | neg. (7×) and <12 IU/ml (8×) | <12 IU/ml (4×) and neg | neg. | 44 U/L and 46 U/L and 24 U/L and 45 U/L and 61 U/L and 42 U/L and 30 U/L and 70 U/L and 17 U/L and 23 U/L (2×) and 47 U/L and 22 U/L and 19 U/L and 31 U/L | 38 U/L and 42 U/L and 27 U/L and 51 U/L and 47 U/L and 34 U/L (2×) and 25 U/L and 62 U/L and 22 U/L and 31 U/L and 28 U/L and 29 U/L and 24 U/L and 23 U/L | 31 U/L and 35 U/L and 21 U/L (3×) and 41 U/L and 37 U/L and 43 U/L and 24 U/L and 62 U/L and 17 U/L and 107 U/L and 25 U/L and 23 U/L and 42 U/L | 30 IU/ml | – |
| ledipasvir plus sofosbuvir [SOF + LDV] | neg. | <12 IU/ml | neg. | 31 U/L and 64 U/L and 23 U/L and 24 U/L | 31 U/L and 74 U/L and 22 U/L and 24 U/L | 27 U/L and 32 U/L and 21 U/L and 10 U/L | 61 IU/ml and <12 IU/ml (2×) and 51 IU/ml and 12 IU/ml (2×) and 14 IU/ml | SVR12 |
| ritonavir-boosted paritaprevir, ombitasvir, and dasabuvir [3D] | neg. | neg | neg. | 21 U/L and 15 U/L and 23 U/L | 24 U/L and 17 U/L and 19 U/L | 24 U/L and 21 U/L | – | SVR12 |
